# Read-outs that look alike come from different tables or passages of the source. Marks after values point to notes of the source that are not given here.
# Columns and labels:
# [1] = Approximate solubility estimates (solvent incremental addition, visual observation); type: physicochemical; details: for solubility: thermodynamic from solid
# Procedure: Approximate solubility estimates of Compound 1 Lot I were ascertained using the solvent incremental addition method and visual observation (Table 2.1). […] Approximate solubilities were calculated based on the total solvent used to achieve a solution, as judged by visual observation. Actual solubilities may be greater because of the volume of solvent portions utilized or a slow rate of dissolution. […] If dissolution occurred at the first aliquot, the value was reported as “>”
# [2] = Exposure experiments at high relative humidity; type: physicochemical; details: RT, 17 days
# Procedure: In a series of exposure experiments, Compound 1 Lot I was exposed to high relative humidity. Generally, approx. 50 mg Compound 1 was transferred to vials, and the vials were placed open in chambers containing saturated aqueous solutions of various salts, which are known to generate various relative humidity levels in the chambers. See, e.g., “Standard Practice for Maintaining Constant Relative Humidity by Means of Aqueous Solutions” ASTM Standard E 104-85 (1996); “Humidity Fixed Points of Binary Saturated Aqueous Solutions” Greenspan, L. J. Res. Natl. Bur. Stand., Sect. A […], 81A, 89-96; “Saturated Salt Solutions for Maintaining Specified Relative Humidities” Nyqvist, H. E. Int. J. Pharma. Technol. Prod. Manuf. 1983, 4, 47-48; and “Evaluation of Relative Humidity Values for Saturated Aqueous Salt Solutions Using Osmotic Coefficients Between 50 and 100° C.” Moisture Humidity, Proc. Int. Symp. 1985, 577-96.
# [3] = Dynamic vapor sorption (DVS); type: physicochemical; details: for Hysteresis: in % (unit assumed); for weight gain during sorption: DVS; for XRPD pattern of the post-DVS sample: after DVS experiment
# Procedure: Moisture sorption/desorption data were collected on a Surface Measurement System DVS Intrinsic instrument. Samples were not dried prior to analysis. Sorption and desorption data were collected over a range from 5% to 95% RH to 5% RH at 10% RH increments under a nitrogen purge. The equilibrium criterion used for analysis was less than 0.0100% weight change in 5 minutes with a maximum equilibration time of 3 hours. Data were not corrected for the initial moisture content of the samples.
# [4] = Interconversion slurry experiments; details: interconversion slurries, ambient temperature to 65° C.
# Procedure: Mixtures of Form H and Form I with Form B were utilized in these interconversion slurry experiments. […] The interconversion slurries were performed at ambient and elevated (65° C.) temperatures in various solvents and solvent mixtures.
# [5] = Slurry in water at ambient temperature (XRPD); type: physicochemical; details: 5 days
# [6] = Stability stress studies on Form B (RH/temperature exposure, XRPD); type: physicochemical
# Procedure: Stability stress studies were conducted on Form B by exposing samples to three conditions: 57.5% RH/RT; 97.3% RH/RT, and 75% RH/40° C. and collecting XRPD data at two time points (14 and 28 days).
smiles,measurement,setting,value
CN(C)C(=O)Nc1cc(Oc2cnc3nc(Nc4cc(C(F)(F)F)cn(C)c4=O)n(C)c3c2C#N)ccn1 [Compound 1 Lot II],solubility,"[1]; 1-BuOH:H2O (90:10), 80 °C, organic solvent or mixture, 1-BuOH:H2O (90:10), aw = 0.82, 80° C., read-out: Solubility",4000 µg/mL
same,solubility,"[1]; 1-BuOH:H2O (96:4), 85 °C, organic solvent or mixture, 1-BuOH:H2O (96:4), aw = 0.49, 85° C., read-out: Solubility",1000 µg/mL
CN(C)C(=O)Nc1cc(Oc2cnc3nc(Nc4cc(C(F)(F)F)cn(C)c4=O)n(C)c3c2C#N)ccn1 [Compound 1 Lot I],solubility,"[1]; 2-butanone (MEK), organic solvent or mixture, 2-butanone (MEK), ambient, read-out: Solubility",1000 µg/mL
same,Solubility (mg/mL),"[1]; AcOH, ambient",>59^b mg/mL
same,solubility,"[1]; AcOH:H2O (20:80), aqueous with cosolvent or surfactant or cyclodextrin, AcOH:H2O (20:80), aw = 0.94, ambient, read-out: Solubility",1000 µg/mL
same,solubility,"[1]; AcOH:H2O (50:50), aqueous with cosolvent or surfactant or cyclodextrin, AcOH:H2O (50:50), aw = 0.84, ambient, read-out: Solubility",14000 µg/mL
same,solubility,"[1]; AcOH:H2O (85:15), organic solvent or mixture, AcOH:H2O (85:15), aw = 0.51, ambient, read-out: Solubility",> 51000 µg/mL
same,solubility,"[1]; CHCl3, organic solvent or mixture, CHCl3, ambient, read-out: Solubility",2000 µg/mL
same,solubility,"[1]; DMA, organic solvent or mixture, DMA, ambient, read-out: Solubility",8000 µg/mL
same,solubility,"[1]; DMSO, organic solvent or mixture, DMSO, ambient, read-out: Solubility",6000 µg/mL
same,solubility,"[1]; EtOAc, organic solvent or mixture, EtOAc, ambient, read-out: Solubility",< 1000 µg/mL
same,solubility,"[1]; EtOH:H2O (90:10), organic solvent or mixture, EtOH:H2O (90:10), aw = 0.49, ambient, read-out: Solubility",1000 µg/mL
same,solubility,"[1]; MIBK, organic solvent or mixture, MIBK, ambient, read-out: Solubility",< 1000 µg/mL
same,solubility,"[1]; MeCN, organic solvent or mixture, MeCN, ambient, read-out: Solubility",< 1000 µg/mL
same,solubility,"[1]; MeOH, organic solvent or mixture, MeOH, ambient, read-out: Solubility",< 1000 µg/mL
same,solubility,"[1]; MeOH:CHCl3 (50:50), organic solvent or mixture, MeOH:CHCl3 (50:50), ambient, read-out: Solubility",< 1000 µg/mL
same,solubility,"[1]; MeOH:DCM (1:3), organic solvent or mixture, MeOH:DCM (1:3), ambient, read-out: Solubility",37000 µg/mL
same,solubility,"[1]; MeOH:H2O (90:10), organic solvent or mixture, MeOH:H2O (90:10), aw = 0.29, ambient, read-out: Solubility",1000 µg/mL
same,solubility,"[1]; NMP, organic solvent or mixture, NMP, ambient, read-out: Solubility",8000 µg/mL
same,solubility,"[1]; TFE, organic solvent or mixture, TFE, ambient, read-out: Solubility",17000 µg/mL
same,solubility,"[1]; THF, organic solvent or mixture, THF, ambient, read-out: Solubility",< 1000 µg/mL
same,solubility,"[1]; acetic acid (AcOH), organic solvent or mixture, AcOH, ambient, read-out: Solubility",> 59000 µg/mL
same,solubility,"[1]; acetone, organic solvent or mixture, Acetone, ambient, read-out: Solubility",1000 µg/mL
same,solubility,"[1]; acetone:H2O (90:10), organic solvent or mixture, acetone:H2O (90:10), aw = 0.69, ambient, read-out: Solubility",2000 µg/mL
same,solubility,"[1]; i-PrOH, organic solvent or mixture, i-PrOH, ambient, read-out: Solubility",< 1000 µg/mL
same,solubility,"[1]; organic solvent or mixture, 10% water added to acetone, ethanol, and methanol, ambient, read-out: solubility after addition of 10% water",1000 to 2000 µg/mL
same,solubility,"[1]; organic solvent or mixture, in acetone, chloroform, MEK, and aprotic solvents DMSO, DMAc, and NMP, ambient, read-out: limited solubility",1000 to 8000 µg/mL
same,solubility,"[1]; toluene, organic solvent or mixture, toluene, ambient, read-out: Solubility",< 1000 µg/mL
same,solubility,"[1]; water, H2O, ambient, read-out: Solubility",< 1000 µg/mL
same,XRPD Result,[2]; 75% RH,Forms B + C + larger peaks
same,weight gain,[2]; 75% RH,0.56% weight gain
same,XRPD Result,[2]; 97% RH,Forms B + C + peaks
same,weight gain,[2]; 97% RH,0.71% weight gain
CN(C)C(=O)Nc1cc(Oc2cnc3nc(Nc4cc(C(F)(F)F)cn(C)c4=O)n(C)c3c2C#N)ccn1 [Form B],Desorp Mass Change (%),"[3]; DVS cycle 1, target RH 5%",−0.0297%
same,Sorp Mass Change (%),"[3]; DVS cycle 1, target RH 5%",0.0003%
same,Desorp Mass Change (%),"[3]; DVS cycle 1, target RH 15%",0.0109%
same,Sorp Mass Change (%),"[3]; DVS cycle 1, target RH 15%",0.0327%
same,Hysteresis,"[3]; DVS cycle 1, target RH 15%",−0.0218
same,Desorp Mass Change (%),"[3]; DVS cycle 1, target RH 25%",0.048%
same,Sorp Mass Change (%),"[3]; DVS cycle 1, target RH 25%",0.0627%
same,Hysteresis,"[3]; DVS cycle 1, target RH 25%",−0.0147
same,Desorp Mass Change (%),"[3]; DVS cycle 1, target RH 35%",0.0903%
same,Sorp Mass Change (%),"[3]; DVS cycle 1, target RH 35%",0.0974%
same,Hysteresis,"[3]; DVS cycle 1, target RH 35%",−0.0071
same,Desorp Mass Change (%),"[3]; DVS cycle 1, target RH 45%",0.1586%
same,Sorp Mass Change (%),"[3]; DVS cycle 1, target RH 45%",0.1439%
same,Hysteresis,"[3]; DVS cycle 1, target RH 45%",0.0147
same,Desorp Mass Change (%),"[3]; DVS cycle 1, target RH 55%",0.2045%
same,Sorp Mass Change (%),"[3]; DVS cycle 1, target RH 55%",0.1803%
same,Hysteresis,"[3]; DVS cycle 1, target RH 55%",0.0241
same,Desorp Mass Change (%),"[3]; DVS cycle 1, target RH 65%",0.2463%
same,Sorp Mass Change (%),"[3]; DVS cycle 1, target RH 65%",0.2227%
same,Hysteresis,"[3]; DVS cycle 1, target RH 65%",0.0235
same,weight gain during sorption,[3]; 5-95% RH,0.43%
same,XRPD pattern of the post-DVS sample,[3],consistent with Form B
same,hygroscopicity,[3]; judged from DVS sorption/desorption,non-hygroscopic
same,relative stability of anhydrous forms,[4],likely the most stable anhydrous form under the tested conditions
same,solid form after slurry in water (XRPD),[5],remained unchanged
same,XRPD Result,"[6]; 57.5% RH/RT, 14 days",Form B
same,XRPD Result,"[6]; 57.5% RH/RT, 28 days",Form B
same,stability under stress conditions,"[6]; 57.5% RH/RT, 97.3% RH/RT, 75% RH/40° C., 14 and 28 days",stable at the tested stress conditions
same,XRPD Result,"[6]; 75.3% RH/40° C., 14 days",Form B
same,XRPD Result,"[6]; 75.3% RH/40° C., 28 days",Form B
same,XRPD Result,"[6]; 97.3% RH/RT, 14 days",Form B
same,XRPD Result,"[6]; 97.3% RH/RT, 28 days",Form B
CN(C)C(=O)Nc1cc(Oc2cnc3nc(Nc4cc(C(F)(F)F)cn(C)c4=O)n(C)c3c2C#N)ccn1 [Form C],Desorp Mass Change (%),"[3]; DVS cycle 1, target RH 5%",0.028%
same,Sorp Mass Change (%),"[3]; DVS cycle 1, target RH 5%",0.005%
same,Desorp Mass Change (%),"[3]; DVS cycle 1, target RH 15%",1.354%
same,Sorp Mass Change (%),"[3]; DVS cycle 1, target RH 15%",1.314%
same,Hysteresis,"[3]; DVS cycle 1, target RH 15%",0.040
same,Desorp Mass Change (%),"[3]; DVS cycle 1, target RH 25%",1.757%
same,Sorp Mass Change (%),"[3]; DVS cycle 1, target RH 25%",1.741%
same,Hysteresis,"[3]; DVS cycle 1, target RH 25%",0.016
same,Desorp Mass Change (%),"[3]; DVS cycle 1, target RH 35%",1.927%
same,Sorp Mass Change (%),"[3]; DVS cycle 1, target RH 35%",1.912%
same,Hysteresis,"[3]; DVS cycle 1, target RH 35%",0.015
same,Desorp Mass Change (%),"[3]; DVS cycle 1, target RH 45%",2.061%
same,Sorp Mass Change (%),"[3]; DVS cycle 1, target RH 45%",2.017%
same,Hysteresis,"[3]; DVS cycle 1, target RH 45%",0.044
same,Desorp Mass Change (%),"[3]; DVS cycle 1, target RH 55%",2.161%
same,Sorp Mass Change (%),"[3]; DVS cycle 1, target RH 55%",2.100%
same,Hysteresis,"[3]; DVS cycle 1, target RH 55%",0.061
same,Desorp Mass Change (%),"[3]; DVS cycle 1, target RH 65%",2.240%
same,Sorp Mass Change (%),"[3]; DVS cycle 1, target RH 65%",2.178%
same,Hysteresis,"[3]; DVS cycle 1, target RH 65%",0.061
same,Desorp Mass Change (%),"[3]; DVS cycle 1, target RH 75%",2.323%
same,Sorp Mass Change (%),"[3]; DVS cycle 1, target RH 75%",2.262%
same,Hysteresis,"[3]; DVS cycle 1, target RH 75%",0.061
same,Desorp Mass Change (%),"[3]; DVS cycle 1, target RH 85%",2.437%
same,Sorp Mass Change (%),"[3]; DVS cycle 1, target RH 85%",2.375%
same,Hysteresis,"[3]; DVS cycle 1, target RH 85%",0.062
same,Desorp Mass Change (%),"[3]; DVS cycle 1, target RH 95%",2.620%
same,Sorp Mass Change (%),"[3]; DVS cycle 1, target RH 95%",2.620%
same,weight gain during sorption,[3]; 5-25% RH,1.74%
same,weight gain during sorption,[3]; 5-95% RH,2.6%
same,XRPD pattern of the post-DVS sample,[3],consistent with Form C with slight peak shifting
CN(C)C(=O)Nc1cc(Oc2cnc3nc(Nc4cc(C(F)(F)F)cn(C)c4=O)n(C)c3c2C#N)ccn1 [Form I],relative stability of anhydrous forms,[4]; listed as Compound 1 Form I,metastable form with respect to Form B
